Antagonism data for one molecule are collected here from patent publication EP1944296A1, “Amorphous phase of a substituted pyrazoline, its preparation and use as medicaments” (Laboratorios del Dr. Esteve S.A., priority 2007, dated 2008).

For this assay, the target named is T1, recombinant human cannabinoid 1 receptor (CB1) (Homo sapiens, UniProt P21554).
T1 construct: expressed in transfected cells; membrane preparation
The assay is described as follows: In vitro determination of antagonism to CB1-receptor, [35S]GTPγS binding assay. Format: biochemical. The following applies: compound 1 µM vs agonist WIN 55,212-2; 100 % = effect of Rimonabant (1 µM). On the procedure: The reaction is performed in 96-well plates. […] Radioactivity is determined using a Wallac Microbeta Trilux. Each experiment is performed at least in duplicate.
The average of basal [^35S]GTPγS binding is subtracted from all binding data.
In general terms: GTPγS is a poorly hydrolysed GTP analogue; its binding reports G protein activation.

T1 sequence (P21554 whole entry): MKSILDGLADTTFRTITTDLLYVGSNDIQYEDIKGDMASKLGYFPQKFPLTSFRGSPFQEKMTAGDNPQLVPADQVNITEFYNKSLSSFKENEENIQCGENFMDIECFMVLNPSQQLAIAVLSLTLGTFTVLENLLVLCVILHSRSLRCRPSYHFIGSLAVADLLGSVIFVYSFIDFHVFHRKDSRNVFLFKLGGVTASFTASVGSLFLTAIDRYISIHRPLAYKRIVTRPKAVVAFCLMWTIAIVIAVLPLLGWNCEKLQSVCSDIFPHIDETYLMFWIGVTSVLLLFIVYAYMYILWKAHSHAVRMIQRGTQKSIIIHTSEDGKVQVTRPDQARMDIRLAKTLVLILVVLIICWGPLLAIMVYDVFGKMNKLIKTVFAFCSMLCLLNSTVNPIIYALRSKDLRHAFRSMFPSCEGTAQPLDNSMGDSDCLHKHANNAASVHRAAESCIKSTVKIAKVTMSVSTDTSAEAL

Regarding `O=C(NN1CCCCC1)C1=NN(c2ccc(Cl)cc2Cl)[C@@H](c2ccc(Cl)cc2)C1` [Example 1, (R)-N-piperidinyl-5-(4-chlorophenyl)-1-(2,4-dichlorophenyl)-4,5-dihydro-1H-pyrazole-3-carboxamide], the Antagonism came to 106%.
